Target: T1, SMYD3 (Homo sapiens, UniProt Q9H7B4)
T1 sequence (Q9H7B4 1-428): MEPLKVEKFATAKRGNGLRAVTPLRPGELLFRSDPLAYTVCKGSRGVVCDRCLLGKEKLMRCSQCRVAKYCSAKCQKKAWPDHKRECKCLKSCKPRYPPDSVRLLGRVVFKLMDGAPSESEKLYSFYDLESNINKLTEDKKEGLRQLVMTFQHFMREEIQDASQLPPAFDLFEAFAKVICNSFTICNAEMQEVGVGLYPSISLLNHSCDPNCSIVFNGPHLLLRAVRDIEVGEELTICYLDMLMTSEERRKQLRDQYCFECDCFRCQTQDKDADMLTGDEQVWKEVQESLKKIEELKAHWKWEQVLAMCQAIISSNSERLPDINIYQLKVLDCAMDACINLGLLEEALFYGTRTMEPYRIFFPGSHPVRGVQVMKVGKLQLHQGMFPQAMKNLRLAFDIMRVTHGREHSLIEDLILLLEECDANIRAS
Assay: SMYD3 biochemical assay (MTase-Glo, MAP3K2 peptide substrate)
Conditions: Table 3; MTase assay, MAP3K2 peptide substrate; read-out: IC50
Method in brief: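 Luminescent readout of SAH production (coupled SAH→ATP conversion, MTase-Glo) after SMYD3 reacted 30 min at room temperature with 1.0 µM SAM and 10 µM MAP3K2 peptide, both final. Non-linear regression gave IC50 values.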

In order of rising IC50:
1. CCCOC(=O)N1CCN(C(=O)c2ccc3c(Cl)c4c(nc3c2)CC(c2cnn(C)c2)CC4)CC1 (centres unmarked) [A151, Propyl 4-(9-chloro-6-(1-methyl-1H-pyrazol-4-yl)-5,6,7,8-tetrahydroacridine-3-carbonyl)piperazine-1-carboxylate]  46 nM
2. CCCOC(=O)N1CCN(C(=O)c2ccc3c(Cl)cc(-c4ccccc4)nc3c2)C[C@@H]1C [B018, Propyl (S)-4-(4-chloro-2-phenylquinoline-7-carbonyl)-2-methylpiperazine-1-carboxylate]  130 nM
3. CCCOC(=O)N1CCN(C(=O)c2ccc3c(Cl)c(C)c(-c4ccccc4)nc3c2)[C@@H](C)C1 [B016, Propyl (S)-4-(4-chloro-3-methyl-2-phenylquinoline-7-carbonyl)-3-methylpiperazine-1-carboxylate]  150 nM
4. CCCOC(=O)N1CCN(C(=O)c2ccc3c(Cl)c(C)c(-c4ccccc4)nc3c2)C[C@@H]1C [B006, Propyl (S)-4-(4-chloro-3-methyl-2-phenylquinoline-7-carbonyl)-2-methylpiperazine-1-carboxylate]  160 nM
5. CCCOC(=O)N1CCN(C(=O)c2ccc3c(Cl)cc(-c4ccccc4)nc3c2)[C@@H](C)C1 [B014, Propyl (S)-4-(4-chloro-2-phenylquinoline-7-carbonyl)-3-methylpiperazine-1-carboxylate]  170 nM
6. CCCOC(=O)N1CCN(C(=O)c2ccc3c(Cl)cc(-c4ccccc4)nc3c2)[C@H](C)C1 [B015, Propyl (R)-4-(4-chloro-2-phenylquinoline-7-carbonyl)-3-methylpiperazine-1-carboxylate]  190 nM
7. CCCOC(=O)N1CCN(C(=O)c2ccc3c(Cl)c4c(nc3c2)CC(c2ccnc(C(N)=O)c2)CC4)[C@@H](C)C1 (stereo partly drawn) [A145, Propyl (3S)-4-(6-(2-carbamoylpyridin-4-yl)-9-chloro-5,6,7,8-tetrahydroacridine-3-carbonyl)-3-methylpiperazine-1-carboxylate]  220 nM
8. CCCOC(=O)N1CCN(C(=O)c2ccc3c(Cl)c(C)c(-c4ccccc4)nc3c2)C[C@H]1C [B007, Propyl (R)-4-(4-chloro-3-methyl-2-phenylquinoline-7-carbonyl)-2-methylpiperazine-1-carboxylate]  220 nM
9. C#Cc1ccc(C2CCc3c(nc4cc(C(=O)N5CCN(C(=O)OCCC)[C@H](C)C5)ccc4c3Cl)C2)nc1 (stereo partly drawn) [A149, Propyl (2R)-4-(9-chloro-6-(5-ethynylpyridin-2-yl)-5,6,7,8-tetrahydroacridine-3-carbonyl)-2-methylpiperazine-1-carboxylate]  260 nM
10. C#Cc1ccc(C2CCc3c(nc4cc(C(=O)N5CCN(C(=O)OCCC)C[C@@H]5C)ccc4c3Cl)C2)nc1 (stereo partly drawn) [A150, Propyl (3S)-4-(9-chloro-6-(5-ethynylpyridin-2-yl)-5,6,7,8-tetrahydroacridine-3-carbonyl)-3-methylpiperazine-1-carboxylate]  260 nM
11. CCCOC(=O)N1CCN(C(=O)c2ccc3c(Cl)c(C)c(-c4ccc(OC)cc4)nc3c2)[C@@H](C)C1 [B026, Propyl (S)-4-(4-chloro-2-(4-methoxyphenyl)-3-methylquinoline-7-carbonyl)-3-methylpiperazine-1-carboxylate]  270 nM
12. CCCOC(=O)N1CCN(C(=O)c2ccc3c(Cl)c4c(nc3c2)CC(c2ccnc(C#N)n2)CC4)CC1 (centres unmarked) [A148, Propyl 4-(9-chloro-6-(2-cyanopyrimidin-4-yl)-5,6,7,8-tetrahydroacridine-3-carbonyl)piperazine-1-carboxylate]  300 nM
13. CCCOC(=O)N1CCN(C(=O)c2ccc3c(Cl)c(C)c(-c4ccccc4)nc3c2)[C@H](C)C1 [B017, Propyl (R)-4-(4-chloro-3-methyl-2-phenylquinoline-7-carbonyl)-3-methylpiperazine-1-carboxylate]  300 nM
14. CCCOC(=O)N1CCN(C(=O)c2ccc3c(Cl)cc(-c4ccccc4)nc3c2)CC1 [B002, Propyl 4-(4-chloro-2-phenylquinoline-7-carbonyl)piperazine-1-carboxylate]  410 nM
15. CCCOC(=O)N1CCN(C(=O)c2ccc3c(Cl)cc(-c4ccc(C)cc4)nc3c2)CC1 [B010]  500 nM
16. CCCOC(=O)N1CCN(C(=O)c2ccc3c(Cl)c4c(nc3c2)CC(c2ccnc(CN)c2)CC4)CC1 (centres unmarked) [A144, Propyl 4-(6-(2-(aminomethyl)pyridin-4-yl)-9-chloro-5,6,7,8-tetrahydroacridine-3-carbonyl)piperazine-1-carboxylate]  510 nM
17. C=CCC1CCCc2c1nc1cc(C(=O)N3CCN(C(=O)OCCC)CC3)ccc1c2Cl (centres unmarked) [A146, Propyl 4-(5-allyl-9-chloro-5,6,7,8-tetrahydroacridine-3-carbonyl)piperazine-1-carboxylate]  560 nM
18. CCCOC(=O)N1CCN(C(=O)c2ccc3c(Cl)c(C)c(-c4ccc(C)cc4)nc3c2)[C@@H](C)C1 [B024, Propyl (S)-4-(4-chloro-3-methyl-2-(p-tolyl)quinoline-7-carbonyl)-3-methylpiperazine-1-carboxylate]  670 nM
19. CCCOC(=O)N1CCN(C(=O)c2ccc3c(Cl)c(C)c(-c4ccc(C)cc4)nc3c2)CC1 [B025, Propyl 4-(4-chloro-3-methyl-2-(p-tolyl)quinoline-7-carbonyl)piperazine-1-carboxylate]  670 nM
20. CCCOC(=O)N1CCN(C(=O)c2ccc3c(Cl)c(C)c(-c4ccc(C)cc4)nc3c2)[C@H](C)C1 [B023, Propyl (R)-4-(4-chloro-3-methyl-2-(p-tolyl)quinoline-7-carbonyl)-3-methylpiperazine-1-carboxylate]  690 nM
21. CCCOC(=O)N1CCN(C(=O)c2ccc3c(Cl)cc(-c4cccc(C)c4)nc3c2)CC1 [B011, Propyl 4-(4-chloro-2-(m-tolyl)quinoline-7-carbonyl)piperazine-1-carboxylate]  770 nM
22. CCCOC(=O)N1CCN(C(=O)c2ccc3c(Cl)c(C)c(-c4ccc(F)cc4)nc3c2)CC1 [B022, Propyl 4-(4-chloro-2-(4-fluorophenyl)-3-methylquinoline-7-carbonyl)piperazine-1-carboxylate]  850 nM
23. CCCOC(=O)N1CCN(C(=O)c2ccc3c(Cl)cc(-c4ccncc4)nc3c2)CC1 [B013, Propyl 4-(4-chloro-2-(pyridin-4-yl)quinoline-7-carbonyl)piperazine-1-carboxylate]  950 nM
24. CCCOC(=O)N1CCN(C(=O)c2ccc3c(Cl)c(C)c(-c4cccc(C)c4)nc3c2)CC1 [B028, Propyl 4-(4-chloro-3-methyl-2-(m-tolyl)quinoline-7-carbonyl)piperazine-1-carboxylate]  1100 nM
25. CCCOC(=O)N1CCN(C(=O)c2ccc3c(Cl)c(C)c(-c4ccccc4C)nc3c2)CC1 [B027, Propyl 4-(4-chloro-3-methyl-2-(o-tolyl)quinoline-7-carbonyl)piperazine-1-carboxylate]  1200 nM
26. CCCOC(=O)N1CCN(C(=O)c2ccc3c(Cl)c(C)c(-c4ccc(Cl)cc4)nc3c2)CC1 [B021, Propyl 4-(4-chloro-2-(4-chlorophenyl)-3-methylquinoline-7-carbonyl)piperazine-1-carboxylate]  1300 nM
27. CCCOC(=O)N1CCN(C(=O)c2ccc3c(Cl)c(CC)c(-c4ccccc4)nc3c2)CC1 [B004, Propyl 4-(4-chloro-3-ethyl-2-phenylquinoline-7-carbonyl)piperazine-1-carboxylate]  1400 nM
28. CCCOC(=O)N1CCN(C(=O)c2ccc3c(Cl)cc(-c4ccccn4)nc3c2)CC1 [B008, Propyl 4-(4-chloro-2-(pyridin-2-yl)quinoline-7-carbonyl)piperazine-1-carboxylate]  1400 nM
29. CCCOC(=O)N1CCN(C(=O)c2ccc3c(Cl)c(C)c(-c4cccc(OC)c4)nc3c2)CC1 [B029, Propyl 4-(4-chloro-2-(3-methoxyphenyl)-3-methylquinoline-7-carbonyl)piperazine-1-carboxylate]  1400 nM
30. CCCOC(=O)N1CCN(C(=O)c2ccc3c(Cl)cc(-c4cccnc4)nc3c2)CC1 [B001, Propyl 4-(4-chloro-2-(pyridin-3-yl)quinoline-7-carbonyl)piperazine-1-carboxylate]  2400 nM
31. CCCOC(=O)N1CCN(C(=O)c2ccc3c(Cl)cc(-c4cncc(C)c4)nc3c2)CC1 [B005, Propyl 4-(4-chloro-2-(5-methylpyridin-3-yl)quinoline-7-carbonyl)piperazine-1-carboxylate]  2500 nM
32. CCCOC(=O)N1CCN(C(=O)c2ccc3c(Cl)cc(-c4ccccc4C)nc3c2)CC1 [B012, Propyl 4-(4-chloro-2-(o-tolyl)quinoline-7-carbonyl)piperazine-1-carboxylate]  2900 nM
33. CCCOC(=O)N1CCN(C(=O)c2ccc3c(Cl)c(C)c(-c4ccc(C(F)(F)F)cc4)nc3c2)CC1 [B020, Propyl 4-(4-chloro-3-methyl-2-(4-(trifluoromethyl)phenyl)quinoline-7-carbonyl)piperazine-1-carboxylate]  3200 nM
34. CCCOC(=O)N1CCN(C(=O)c2ccc3c(Cl)cc(Cc4ccccc4)nc3c2)CC1 [B009, Propyl 4-(2-benzyl-4-chloroquinoline-7-carbonyl)piperazine-1-carboxylate]  3300 nM
35. CCCOC(=O)N1CCN(C(=O)c2ccc3c(Cl)c(C)c(-c4cccc(F)c4F)nc3c2)CC1 [B030, Propyl 4-(4-chloro-2-(2,3-difluorophenyl)-3-methylquinoline-7-carbonyl)piperazine-1-carboxylate]  5800 nM
